Data: a melting point compilation (Tetko et al.; mined from patent text by program, amines drawn as free bases though some values may be those of a salt)

SMILES	melting point [°C]
NS(=O)(=O)c1cc2c(s1)CCC(O)C2 (configuration not stated)	176 to 179
COc1ccc(C(=O)Nc2ccc3ccc(-c4ccccc4)nc3n2)cc1	187
NC(=O)c1cnn(-c2ccc(F)cc2)c1-c1ccncc1	215 to 216
CN(C)C1CSC(C#N)(c2ccc(Cl)cc2)SC1 (configuration not stated)	110 to 111
CNCC1Cc2c(Cl)cc3c(c2O1)CCC3 (configuration not stated)	58 to 60
COc1ccc(O)c(C(=O)c2oc3ccc(Cl)cc3c2N)c1	202 to 205
CCOC(=O)C(C)Oc1ccc(C(=O)Nc2ccccc2Sc2ccccc2-c2nnn[nH]2)cc1 (configuration not stated)	157 to 158
ClCc1coc(-c2cccc(OCc3ccccc3)c2)n1	49 to 50
CC(C(=O)O)c1ccc2c(c1)Cc1cccnc1S2 (configuration not stated)	203 to 204
Cc1c(O[Si](C)(C)C(C)(C)C)cc(N2C(=O)c3ccccc3C2=O)cc1C(=O)OCc1ccc([N+](=O)[O-])cc1	125 to 127
Cn1c(=O)c2c(ncn2CCCC#N)n(C)c1=O	146 to 150
CCCn1ncc(C(N)=O)c1N	183 to 185
Cc1cncn1-c1cccc([N+](=O)[O-])c1	130 to 132
CCOP(=O)(CNCc1ccnc(-c2cc(OC)c(O)c(OC)c2)c1)OCC	124 to 126
Cc1ccc2nc(SCCN(C(C)C)C(C)C)[nH]c2c1	109 to 110
Cc1oc(-c2ccccc2)nc1C(=O)COc1ccc(CC2SC(=O)NC2=O)cc1 (configuration not stated)	168 to 169
COc1cc2cc(C(=O)O)oc(=O)c2cc1OC	295 to 297
COc1ccc(C(=O)Nc2ccc3ccc(Cl)nc3n2)cc1	208
COC(=O)c1cc(-c2ccc(-c3nccs3)cc2)n(-c2ccc(S(N)(=O)=O)cc2)n1	204 to 206
NC(=O)N1C(=O)C(=C(OC(=O)C=CC(=O)O)c2cccs2)c2cc(Cl)ccc21	198 to 200
COc1cc2c(c(Cl)c1Cl)C(=O)C(CCOC(C)=O)=C2	134 to 136
CC(C)(C)c1nc2cc(Cl)c([N+](=O)[O-])cc2s1	65 to 69
O=C(Nc1ccc(Cc2nnn[nH]2)cc1)C(F)(F)C(F)(F)F	183 to 185
N[C@@H]1CN2C(=O)N(c3cc(Cl)cc(Cl)c3)C(=O)[C@@]2(Cc2ccc(Br)cc2)C1	64.4
COc1ccc(Oc2ccccc2)c(NS(=O)(=O)C(F)(F)F)c1	57 to 58
N#Cc1cc(C(=O)NNC(=O)c2occ(-c3ccncc3)c2-c2ccccc2)ccc1O	179 to 181

SMILES	melting point [°C]
COc1ccc(C2(C)CCC(=O)O2)cc1OC (configuration not stated)	71.2
CC1C(=O)N(c2ccc(S(C)(=O)=O)cc2)N=C1N (configuration not stated)	239 to 240
COC[C@H]1CN(c2noc3cc(OS(=O)(=O)C(F)(F)F)ccc23)C(=O)O1	94
NC(=NC(=O)c1nc(Cl)c(N)nc1N)NCCCCCCCCCCCC(=O)Nc1ncc[nH]1	102 to 104
Cc1ccc(C(=O)O)nn1	174
CC1CC(=O)c2c(OS(=O)(=O)c3cccs3)ccc(Br)c2C1 (configuration not stated)	110 to 113
COc1cc(C#CC(=O)NCCCNC(=O)C#Cc2cc(OC)c(OC)c(OC)c2)cc(OC)c1OC	158 to 160
N#CC1(Cl)C=C(OCc2ccccc2)C=NC1 (configuration not stated)	114 to 115
N#CCC1CC(=O)N(c2ccc(Cl)cc2)C1 (configuration not stated)	92 to 94
COc1cc(OC)cc(-c2ncoc2-c2ccc3c(c2)NCCO3)c1	175 to 178
CCOC(=O)C1(CC(C)=O)OC(=O)C(=O)C1C(C)=O (configuration not stated)	87 to 88
CCn1nc(C(C)(F)F)nc1Cc1ccc(-c2ccccc2-c2nnn[nH]2)nc1	103 to 104
Cn1cc(-c2ncc(-c3ccc4cc(O)ccc4c3)o2)c2ccccc21	188 to 190
COC1=NS(=O)N=C1NCCCCC#CCN(C)C (configuration not stated)	154 to 155
CC(=O)SC[C@@H](C)C(=O)N1C(=O)N(C)C[C@H]1C(=O)OC(C)(C)C	104
CC(=O)C=Cc1c(Cl)nc(C)c2c1CCCC2	90
Nc1c(SSc2c(-c3ncon3)nn(-c3c(Cl)cc(C(F)(F)F)cc3Cl)c2N)c(-c2ncon2)nn1-c1c(Cl)cc(C(F)(F)F)cc1Cl	226 to 228
COCCc1nc2c(N)nc3cc(-c4cncc(CO)c4)ccc3c2n1CC(C)C	202 to 204
O=C(CCNc1c(C(=O)O)[nH]c2cc(Cl)cc(Cl)c12)c1ccccc1Cc1ccccc1	280 to 283
Cc1nnsc1C(=O)Nc1ccc(-n2nc(C(F)(F)F)cc2C)cc1	51 to 53
CC1(C)CC(SCc2cc3c(cc2Cl)OCO3)=NO1	88
Cc1ccc(C(=O)NC(Cc2ccc(C(F)(F)F)cc2)C(=O)c2ccc(F)cc2)c2ccccc12 (configuration not stated)	149 to 150
COc1ccc(SCc2ccc(-c3csnn3)cc2)cc1	117 to 119
Cc1nc2nc(S(=O)(=O)Cl)nn2c(C)c1Cl	131 to 133
COC(=O)C(Oc1ccc(Cl)cc1)c1ccc(Oc2cccc(C(F)(F)F)c2)cc1 (configuration not stated)	79 to 82

Continued, values first:

melting point [°C]	SMILES
170 to 172	CCC(C)(C)C(=O)OCc1cccc(C)c1OCCOc1ccc([C@H](N)C(=O)O)cc1
95 to 97	O=C(NCCCCCCCCn1ccnc1)c1ccc(Cl)s1
238 to 240	CN(C)C(=O)Cc1ccc2c(c1)sc1nc(=O)cc(-c3ccccc3)n12
235 to 240	CCOC(=O)c1cn(C)c2nn(C)cc2c1=O
90 to 92	Nc1ccc(-c2cccc(Cl)c2)cc1C(O)(C1CC1)C1CC1
110 to 118	CCCCN(CCC12CC3CC(CC(C3)C1)C2)C(=O)NCCCc1ccncc1
94 to 96	Clc1ccc(CN2CC=C(/C=C/c3cccc(Cl)c3)CC2)cc1
83 to 86	CNC(=O)[C@@H](C[C@H](O)[C@H](CC1CCCCC1)NC(=O)[C@H](Cc1cscn1)NC(=O)[C@@H](CC(=O)N1CCOCC1)Cc1ccccc1)C(C)C
226 to 229	O=[N+]([O-])c1ccc2nc3c(nc2c1)N1CCCCC1CO3 (configuration not stated)
49 to 50.5	CCN(CC)CCn1nc2c3c(cccc31)Sc1ccccc1-2
117 to 119	CCOC(=O)Cc1c(COC(C)=O)[nH]c(C(=O)OCc2ccccc2)c1C
97 to 99	COc1ccc(C2(C#Cc3cccc(-c4nnc(C)s4)c3)CCCC(=O)C2)cc1OC1CCCC1 (configuration not stated)
110 to 112	CCCCCCCCCCC(C)OS(=O)(=O)NC(=O)Nc1c(C(C)C)cccc1C(C)C (configuration not stated)
191 to 192	N#CCCNC(=O)c1cccc(-c2cccc3c2CN(Cc2cccc(C(F)(F)F)c2)C3=O)c1
84 to 86	OC1(c2cccc(OCc3ccccc3)c2)CCOCC1
198	Cc1cccc(NC(=O)NC(Cc2ccccc2)C(=O)N(CC(=O)OC(C)(C)C)c2ccccc2)c1 (racemic)
102 to 106	COC(=O)c1ccc(C[C@H](NC(=O)OCc2ccccc2)C(=O)O)cc1
58 to 62	COC(=O)c1ccc(OC2CCCCO2)cc1 (configuration not stated)
106 to 108	CCOC(=O)c1ccc(OCCCN2C(=O)c3ccccc3C2=O)cc1
60	O=C(c1cccs1)c1cnn2c(-c3cccc(-c4ccn(CC5CCC5)n4)c3)ccnc12
84 to 85	CCOc1ccc(C(=O)CCC(=O)OC)cc1OCC
225 to 226	Cc1sc2nc(SCCCN3CCN(c4ccc5ccccc5n4)CC3)[nH]c(=O)c2c1C
128 to 130	CCOC(=O)Oc1ccc(C=CC(=O)N2CCN(CC(=O)N3CCCC3)CC2)cc1

melting point [°C]	SMILES
170 to 171	Cc1c(N2CCN(Cc3ccccc3)C(C)C2)c(F)cc2c(=O)c(C(=O)O)cn(C3CC3)c12 (configuration not stated)
231 to 233	Cc1c(N2CCN(C(=O)OC(C)(C)C)CC2)nn2c(-c3ccncc3)c(-c3ccc(F)cc3)nc2c1C
164	CN(C(=O)[C@H]1C[C@H](C(=O)O)[C@@H](c2ccccc2F)N1C(=O)CNC(=O)Nc1cccc(CC(=O)O)c1)c1ccccc1 (racemic)
> 260	CCCCc1cc(=O)c2ccccc2n1Cc1ccc(-c2ccccc2C(=O)O)cc1
95	COC(=O)C1Oc2ccc(F)cc2C(C)(c2ccccc2)O1 (configuration not stated)
107 to 110	CC(C)(C)OC(=O)N1CC(CC(=O)CC(=O)OCc2ccc([N+](=O)[O-])cc2)C2NC(=O)C21 (configuration not stated)
205	CN(C)C(=O)CCC(=O)NC1CCC(CCN2CCC(c3cccc4c3CCO4)CC2)CC1 (configuration not stated)
104 to 105	CCOP(=O)(OCC)C(CC(C(=O)Nc1ccccn1)C(=O)c1ccccc1)P(=O)(OCC)OCC (configuration not stated)
147 to 148	COc1cccc(CC(=O)Nc2ccc3sc(C)nc3c2Cl)c1
121 to 123	Cc1cc(C)c(NC(=O)N=C2CCCN2C)c(C)c1
201 to 202	CC(CCCC(O)(C(F)(F)F)C(F)(F)F)C1CCC2C3CC=C4CC(O)CC(O)C4(C)C3CCC12C (configuration not stated)
247 to 249	Cn1cc(-c2cc3cccnc3[nH]2)c2ccc(C(=O)NC(CO)CO)cc21
202 to 204	Cc1c(NC(=O)c2ccc(C#CC3(O)CCC3)cc2)ccc2cc(CNCC3CCOCC3)n(C)c12
111	CC(=O)OC1CSC(Oc2cccc(-c3ccsc3)c2)C(OC(C)=O)C1OC(C)=O (configuration not stated)
95 to 97	Cc1nc2ncnn2c(C2CCCCC2)c1-c1c(F)cc(OCCCN(C)C)cc1F
101 to 103	O=C(O)CC=CCC(=O)NCCc1ccccc1
134 to 137	O=C(COc1ccccc1)Nc1ccc(CN2C(=O)[C@H]3CCC[C@H]3N(C(=O)CN3C(=O)c4ccccc4C3=O)c3ccccc32)cc1 (relative stereo)
223 to 224	CCCCc1ncc(C/C=C/C(N)(Cc2cccs2)C(=O)O)n1Cc1ccc(C(=O)O)cc1 (configuration not stated)
92 to 98	O=C1OC(CCCN2CCN(c3ncccn3)CC2)CN1c1ccccc1 (configuration not stated)
315 to 317	Cc1nc2ccc(O)cc2c(=O)n1C1CCC(=O)NC1=O (configuration not stated)
209	O=C(Nc1cc2ncc(CN3CCCC3)cc2cc1Cl)c1ccc(-c2cc3ccccc3o2)cc1
134 to 137	C[C@H](NC(=O)c1cc(Cl)c(Cl)cc1C(=O)O)C(=O)N1CCC[C@H]1C(=O)O
60.5 to 62	CCOC(=O)NC1Cc2ccccc2C1Sc1ccccc1 (configuration not stated)
